Experimental data taken from patent publication US11584763B2, “Chromenopyridine derivatives as phosphatidylinositol phosphate kinase inhibitors” (HIBERCELL, INC., priority 2017, dated 2023).

Legend:
Format in all cases: biochemical
PIP4K 2A [1] = target: T1, PIP4K 2A (Homo sapiens, UniProt P48426); assay: ADP-glo kinase assay PIP4K 2A; design: 4 nM PIP4K2A (full length protein, SignalChem); purchased SignalChem; details: compounds listed under IC50 bin headings
T1 sequence (P48426 1-406): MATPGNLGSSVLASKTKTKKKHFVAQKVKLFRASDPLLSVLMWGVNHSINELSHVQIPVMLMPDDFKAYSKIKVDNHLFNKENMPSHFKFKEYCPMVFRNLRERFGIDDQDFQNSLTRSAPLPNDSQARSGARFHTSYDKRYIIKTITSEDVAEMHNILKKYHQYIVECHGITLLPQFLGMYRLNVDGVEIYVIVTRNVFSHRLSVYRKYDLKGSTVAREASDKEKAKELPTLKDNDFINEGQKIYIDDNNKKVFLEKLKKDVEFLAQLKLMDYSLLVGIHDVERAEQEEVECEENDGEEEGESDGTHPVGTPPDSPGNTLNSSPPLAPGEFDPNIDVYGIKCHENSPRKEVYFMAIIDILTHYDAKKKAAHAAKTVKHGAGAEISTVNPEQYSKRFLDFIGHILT
Procedure, shortened: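 Inhibition was calculated versus DMSO controls from ADP-Glo luminescence and fitted to IC50 over a 10-point, threefold series. Compound was first pre-incubated 15 min at room temperature with PIP4K2A (full-length; 4 nM in the enzyme/substrate mix) and PI(5)P diC8 (100 μM in that mix). The reaction then ran for 1 h after adding 60 μM ATP solution, in MOPS pH 7.2/MgCl2/Tween buffer.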

PIP4K 2A [2] = target: T1, PIP4K 2A; assay: Kinase Assay PIP4K2 A (PIP4KtypeIIA inhibition assay); design: made in house; host or cells: E. coli; details: compounds listed under IC50 bin headings
Text: GST tagged PIP4KtypeIIA and B enzymes were overexpressed in E. Coli and purified to >80% homogeneity. Phosphatidyl inositol-5-phosphate (PI5P, Cat. #850152, Avanti Polar Lipids Inc.) was used as the lipid substrate and phosphatidyl ethanolamine (DOPE 18:1, Cat. #850725, Avanti Polar Lipids Inc.) was used as the carrier lipid for assays. Ultrapure ATP and GTP was purchased from Bellbrooke Labs. ADP Glo reagents were obtained from Promega. Transcreener FI reagent was obtained from Bellbrooke labs.
Enzyme preparation: GST-tagged PIP4KtypeIIA (5 uL, 1.43 mg/mL) was diluted (1:10) to 50 uL using HNE buffer. From the 1:10 diluted stock, a 6.4 uL aliquot was diluted further to 5 mL using HNE buffer to yield 5× enzyme stock (2.5 nM).
Lipid Preparation: In a 10 mL pyrex glass vial, 1 ug of PI5P and 1 ug of DOPE were suspended in 2.5 mL of HEPES buffer mix and 2.5 mL of H:E buffer. The contents were mixed and sonicated for 3 min to yield a translucent lipid stock.
Compound Preparation: Compounds were stored as 5 mM stocks in neat DMSO as room temperature in glass vials. 5 mM stocks were diluted to 2 mM and then serially diluted (3×) in neat DMSO in 96 well polypropylene plates. From the serially diluted stocks, 3 uL was delivered into 250 uL of 25% DMSO (in water) to generate 5× compound stocks. Typically, the highest compound conc. was 24 uM.
The assay volume was kept at 25 uL. To each well of the reaction plate, 10 uL of lipid stock (1:1 ratio PI5P:DOPE) was delivered. This was followed by the addition of 5 uL of compound in 25% DMSO. Then, to each well, 5 uL of 2.5 nM (5×) typeIIA enzyme was delivered. The contents were mixed well and incubated for 1 h at 27 C. After 1 h, reaction was initiated by adding 5 uL of 50 uM ATP and the contents were mixed well with a multi-channel pipetteman. The final concentration of the reagents are as follows: 50 mM HEPES, pH 7.3, 10 mM MgCl2, 20 mM NaCl, 0.01% v/v triton-X100, 5% DMSO, 10 uM ATP, 80 uM (2 ug) PI5P, 2 ug DOPE, and 0.5 nM PIP4KIIA. Typically, the highest conc. of compounds was 4.8 uM and the lowest conc. was 0.
After 1 hr, the reaction was quenched by adding 25 uL of ADP Glo reagent. The contents were incubated for 1 hr. Afterwards, 50 uL of kinase detection reagent was delivered. The contents were incubated for another hour. The luminescence was read using Molecular Devices Paradigm plate reader. […] The blanks were averaged and subtracted from all other wells. Using a calibration curve, RLU was converted to uM ADP (product). IC50 was calculated by plotting the residual activity (expressed as % No inhibitor control) vs. log [Inh. conc.]

PIP4K2B = target: T2, PIP4K2B (Homo sapiens, UniProt P78356); assay: Trans-FI P kinase assay PIP4K2B (PIP4KtypeIIB inhibition assay); details: compounds listed under IC50 bin headings; 100 uM GTP; read-out: Trans-FI P kinase assays: PIP4K2B IC50
T2 construct: made in house; host or cells: E. coli
T2 sequence (P78356 1-416): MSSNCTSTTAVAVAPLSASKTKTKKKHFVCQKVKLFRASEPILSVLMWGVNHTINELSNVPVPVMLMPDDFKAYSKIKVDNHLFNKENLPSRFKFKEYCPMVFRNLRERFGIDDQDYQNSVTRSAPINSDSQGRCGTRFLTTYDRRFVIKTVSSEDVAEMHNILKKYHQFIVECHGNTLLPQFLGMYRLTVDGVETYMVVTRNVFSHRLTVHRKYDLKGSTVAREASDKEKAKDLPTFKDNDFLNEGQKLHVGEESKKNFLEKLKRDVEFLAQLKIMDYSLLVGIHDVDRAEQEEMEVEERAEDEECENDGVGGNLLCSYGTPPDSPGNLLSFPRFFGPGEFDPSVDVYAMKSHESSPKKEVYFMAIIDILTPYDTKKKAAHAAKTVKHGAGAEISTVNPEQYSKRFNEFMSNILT
Procedure, shortened: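 Transcreener FI fluorescence read-out of GDP formed by E. coli-expressed GST-PIP4K2B (5 nM) using 100 uM GTP and 80 uM PI5P with DOPE carrier lipid, pH 7.3, 2 h reaction. Compounds (up to 4.8 uM) were preincubated with enzyme 1 h at 27 C; IC50 fitted from residual activity relative to no-inhibitor control.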

Compound `CC1c2cc(Nc3cnc4c(c3)OCCO4)ncc2-c2ccc(N3CCCC3=O)cc2N1C` (stereo not drawn) [Example 45, 1-(3-((2,3-dihydro-[1,4]dioxino[2,3-b]pyridin-7-yl)amino)-5,6-dimethyl-5,6-dihydrobenzo[c][2,6]naphthyridin-8-yl)pyrrolidin-2-one] has an IC50 (PIP4K 2A [1]) of 10 to 100 nM, an IC50 (PIP4K 2A [2]) of 1 to 10 nM and an IC50 (PIP4K2B) of 100 to 1000 nM.
For `CC1Oc2cc(N3CCCC3=O)ccc2-c2cnc(Nc3cnc4c(c3)N(C(=O)C3CC3)CCO4)cc21` (stereo not drawn) [Example 82, 1-(3-((1-(cyclopropanecarbonyl)-2,3-dihydro-1H-pyrido[2,3-b][1,4]oxazin-7-yl)amino)-5-methyl-5H-chromeno[4,3-c]pyridin-8-yl)pyrrolidin-2-one], the IC50 (PIP4K 2A [1]) was ≤ 1 nM, the IC50 (PIP4K 2A [2]) was ≤ 1 nM and the IC50 (PIP4K2B) was 1 to 10 nM.
For `CC1Oc2cc(N3CCCC3=O)ccc2-c2cnc(Nc3cncc(NC(=O)c4cccc(N)c4)c3)cc21` (stereo not drawn) [Example 106, 3-amino-N-(5-((5-methyl-8-(2-oxopyrrolidin-1-yl)-5H-chromeno[4,3-c]pyridin-3-yl)amino)pyridin-3-yl)benzamide], the IC50 (PIP4K 2A [1]) was 1 to 10 nM, the IC50 (PIP4K 2A [2]) was ≤ 1 nM and the IC50 (PIP4K2B) was 10 to 100 nM.
With `CC1Oc2cc(N3CCCC3=O)ccc2-c2cnc(Nc3cnc4c(c3)N(C(=O)C(C)(C)C)CCO4)cc21` (stereo not drawn) [Example 86, 1-(5-methyl-3-((1-pivaloyl-2,3-dihydro-1H-pyrido[2,3-b][1,4]oxazin-7-yl)amino)-5H-chromeno[4,3-c]pyridin-8-yl)pyrrolidin-2-one] the IC50 (PIP4K 2A [1]) was ≤ 1 nM, the IC50 (PIP4K 2A [2]) was ≤ 1 nM and the IC50 (PIP4K2B) was 1 to 10 nM.
In the case of `O=C1CCCN1c1ccc2c(c1)OCc1cc(Nc3cnc4c(c3)N(S(=O)(=O)C3CC3)CCO4)ncc1-2` [Example 74, 1-(3-((1-(cyclopropylsulfonyl)-2,3-dihydro-1H-pyrido[2,3-b][1,4]oxazin-7-yl)amino)-5H-chromeno[4,3-c]pyridin-8-yl)pyrrolidin-2-one], the IC50 (PIP4K 2A [1]) is reported as 1 to 10 nM, the IC50 (PIP4K 2A [2]) is reported as ≤ 1 nM and the IC50 (PIP4K2B) is reported as 1 to 10 nM.
For `CC1(C)Oc2cc(N3CCCC3=O)c(F)cc2-c2cnc(Nc3cnc4c(c3)N3C(=O)CC[C@H]3CO4)cc21` [Example 148, (S)-2-((9-fluoro-5,5-dimethyl-8-(2-oxopyrrolidin-1-yl)-5H-chromeno[4,3-c]pyridin-3-yl)amino)-6,6a,7,8-tetrahydro-9H-pyrido[2,3-b]pyrrolo[1,2-d][1,4]oxazin-9-one], the IC50 (PIP4K 2A [1]) was ≤ 1 nM, the IC50 (PIP4K 2A [2]) was ≤ 1 nM and the IC50 (PIP4K2B) was 1 to 10 nM.
Work on `CC1Oc2cc(N3CCCC3=O)ccc2-c2cnc(Nc3cnc4c(c3)NC(=O)CO4)cc21` (stereo not drawn) [Example 93, 7-((5-methyl-8-(2-oxopyrrolidin-1-yl)-5H-chromeno[4,3-c]pyridin-3-yl)amino)-1H-pyrido[2,3-b][1,4]oxazin-2(3H)-one] yielded an IC50 (PIP4K 2A [1]) of 10 to 100 nM, an IC50 (PIP4K 2A [2]) of 1 to 10 nM and an IC50 (PIP4K2B) of 100 to 1000 nM.
With `CC1Oc2cc(N3CCCC3=O)ccc2-c2cnc(Nc3cnc4c(c3)N(C(=O)C3(O)CC3)CCO4)cc21` (stereo not drawn) [Example 58, 1-(3-((1-(1-hydroxycyclopropane-1-carbonyl)-2,3-dihydro-1H-pyrido[2,3-b][1,4]oxazin-7-yl)amino)-5-methyl-5H-chromeno[4,3-c]pyridin-8-yl)pyrrolidin-2-one] the IC50 (PIP4K 2A [1]) was ≤ 1 nM, the IC50 (PIP4K 2A [2]) was ≤ 1 nM and the IC50 (PIP4K2B) was 1 to 10 nM.
For `CC1Oc2cc(N3CCCC3=O)ccc2-c2cnc(Nc3cncc(NC(=O)NCc4ccccc4)c3)cc21` (stereo not drawn) [Example 103, 1-benzyl-3-(5-((5-methyl-8-(2-oxopyrrolidin-1-yl)-5H-chromeno[4,3-c]pyridin-3-yl)amino)pyridin-3-yl)urea], the IC50 (PIP4K 2A [1]) was 1 to 10 nM, the IC50 (PIP4K 2A [2]) was ≤ 1 nM and the IC50 (PIP4K2B) was 10 to 100 nM.
In the case of `O=C1CCCN1c1ccc2c(c1)OCc1cc(Nc3cnc4c(c3)N3C(=O)CC[C@H]3CO4)ncc1-2` [Example 75, (S)-2-((8-(2-oxopyrrolidin-1-yl)-5H-chromeno[4,3-c]pyridin-3-yl)amino)-6,6a,7,8-tetrahydro-9H-pyrido[2,3-b]pyrrolo[1,2-d][1,4]oxazin-9-one], the IC50 (PIP4K 2A [1]) is reported as ≤ 1 nM, the IC50 (PIP4K 2A [2]) is reported as ≤ 1 nM and the IC50 (PIP4K2B) is reported as 1 to 10 nM.
`CC1Oc2cc(N3CCCC3=O)ccc2-c2cnc(Nc3cncnc3)cc21` (stereo not drawn) [Example 80, 1-(5-methyl-3-(pyrimidin-5-ylamino)-5H-chromeno[4,3-c]pyridin-8-yl)pyrrolidin-2-one] showed an IC50 (PIP4K 2A [1]) of 10 to 100 nM, an IC50 (PIP4K 2A [2]) of 10 to 100 nM and an IC50 (PIP4K2B) of 100 to 1000 nM.
With `COc1ncc(Nc2cc3c(cn2)-c2ccc(N4CCCC4=O)cc2OC3C)cc1N(C)S(C)(=O)=O` (stereo not drawn) [Example 90, N-(2-methoxy-5-((5-methyl-8-(2-oxopyrrolidin-1-yl)-5H-chromeno[4,3-c]pyridin-3-yl)amino)pyridin-3-yl)-N-methylmethanesulfonamide] the IC50 (PIP4K 2A [1]) was 10 to 100 nM, the IC50 (PIP4K 2A [2]) was 1 to 10 nM and the IC50 (PIP4K2B) was 100 to 1000 nM.
For `O=C1CCCN1c1ccc2c(c1)OCc1cc(Nc3cnc4c(c3)N(C(=O)C3CC3)CCO4)ncc1-2` [Example 76, 1-(3-((1-(cyclopropanecarbonyl)-2,3-dihydro-1H-pyrido[2,3-b][1,4]oxazin-7-yl)amino)-5H-chromeno[4,3-c]pyridin-8-yl)pyrrolidin-2-one], the IC50 (PIP4K 2A [1]) was ≤ 1 nM, the IC50 (PIP4K 2A [2]) was ≤ 1 nM and the IC50 (PIP4K2B) was 1 to 10 nM.
`CN(C)C(=O)c1ccc2c(c1)OC(C1CC1)c1cc(Nc3cnc4c(c3)N3C(=O)CC[C@H]3CO4)ncc1-2` (stereo partly drawn) [Example 36, 5-cyclopropyl-N,N-dimethyl-3-(((S)-9-oxo-6a,7,8,9-tetrahydro-6H-pyrido[2,3-b]pyrrolo[1,2-d][1,4]oxazin-2-yl)amino)-5H-chromeno[4,3-c]pyridine-8-carboxamide] was tested, and the IC50 (PIP4K 2A [1]) was ≤ 1 nM, the IC50 (PIP4K 2A [2]) was ≤ 1 nM and the IC50 (PIP4K2B) was 1 to 10 nM.
`CC1Oc2cc(N3CCCC3=O)c(F)cc2-c2cnc(Nc3cnc4c(c3)N3C(=O)CC[C@H]3CO4)cc21` (stereo partly drawn) [Example 47, (6aS)-2-((9-fluoro-5-methyl-8-(2-oxopyrrolidin-1-yl)-5H-chromeno[4,3-c]pyridin-3-yl)amino)-6,6a,7,8-tetrahydro-9H-pyrido[2,3-b]pyrrolo[1,2-d][1,4]oxazin-9-one] was tested, and the IC50 (PIP4K 2A [1]) was ≤ 1 nM, the IC50 (PIP4K 2A [2]) was ≤ 1 nM and the IC50 (PIP4K2B) was 1 to 10 nM.
